Test results taken from patent publication US8809352B2, “Sulfonamides as inhibitors of Bcl-2 family proteins for the treatments of cancer” (Novartis AG, priority 2009, dated 2014).

Target: BCL2 (Homo sapiens, UniProt P10415)
Assay: Biacore SPR solution inhibition assay of BCL-2 binding to peptide derivatized sensor surfaces
Conditions: SPR competition; 56 nM BCL2 pre-equilibrated with compound one hour; biotinylated BAK, BAD and NOXA peptide surfaces; 25° C.
Summary of the method: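 Solution-competition SPR at 25 °C in HEPES pH 7.4 buffer with 1.25 mM DTT and 3% DMSO: compounds (6-point threefold series, 16 μM to 0.004 nM) pre-equilibrated 1 h with 56 nM BCL2, then injected over captured biotinylated BAK, BAD and NOXA peptide surfaces. Binding levels relative to BCL2-only controls gave % inhibition.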

Sequence of BCL2 (P10415 whole entry): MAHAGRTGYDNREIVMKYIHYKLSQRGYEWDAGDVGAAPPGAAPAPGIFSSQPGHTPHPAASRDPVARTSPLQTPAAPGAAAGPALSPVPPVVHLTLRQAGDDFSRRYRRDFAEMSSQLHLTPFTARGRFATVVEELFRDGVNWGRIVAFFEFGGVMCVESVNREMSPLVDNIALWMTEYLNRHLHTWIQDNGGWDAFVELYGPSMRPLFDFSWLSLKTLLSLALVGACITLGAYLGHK

SMILES | IC50 [nM]
CC1Cc2c(ncnc2NS(=O)(=O)c2ccc(N[C@H](CCN(C)C)CSc3ccccc3)c(S(=O)(=O)C(F)(F)F)c2)CN1C1CCN(Cc2ccccc2-c2ccc(Cl)cc2)CC1 (stereo in doubt) [Example 49, N-{(R)-7-[1-(4′-Chloro-biphenyl-2-ylmethyl)-piperidin-4-yl]-6-methyl-5,6,7,8-tetrahydro-pyrido[3,4-d]pyrimidin-4-yl}-4-((R)-3-dimethylamino-1-phenylsulfanylmethyl-propylamino)-3-trifluoromethanesulfonyl-benzenesulfonamide] | 33
CN(C)CC[C@H](CSc1ccccc1)Nc1ccc(S(=O)(=O)Nc2ncnc3c2CCN(C2CCN(Cc4ccc(F)cc4-c4ccc(Cl)cc4)CC2)C3)cc1S(=O)(=O)C(F)(F)F [Example 19, (R)-N-(7-(1-((4′-chloro-5-fluorobiphenyl-2-yl)methyl)piperidin-4-yl)-5,6,7,8-tetrahydropyrido[3,4-d]pyrimidin-4-yl)-4-(4-(dimethylamino)-1-(phenylthio)butan-2-ylamino)-3-(trifluoromethylsulfonyl)benzenesulfonamide] | 35
CN1CCN(CC[C@H](CSc2ccccc2F)Nc2ccc(S(=O)(=O)Nc3ncnc4c3CCN(C3CCN(CC5=C(c6ccc(Cl)cc6)CC(C)(C)CC5)CC3)C4)cc2S(=O)(=O)C(F)(F)F)CC1 [Example 55, (R)-N-(7-(1-((2-(4-chlorophenyl)-4,4-dimethylcyclohex-1-enyl)methyl)piperidin-4-yl)-5,6,7,8-tetrahydropyrido[3,4-d]pyrimidin-4-yl)-4-(1-(2-fluorophenylthio)-4-(4-methylpiperazin-1-yl)butan-2-ylamino)-3-(trifluoromethylsulfonyl)benzenesulfonamide] | 35
[2H]C1(N2CCc3c(ncnc3NS(=O)(=O)c3ccc(N[C@H](CCN4CCCC4)CSc4ccccc4)c(S(=O)(=O)C(F)(F)F)c3)C2)CCN(CC2=C(c3ccc(Cl)cc3)CC(C)(C)CC2)CC1 [Example 85, (R)-N-(7-(1-((2-(4-chlorophenyl)-4,4-dimethylcyclohex-1-enyl)methyl)-4-deuteropiperidin-4-yl)-5,6,7,8-tetrahydropyrido[3,4-d]pyrimidin-4-yl)-4-(1-(phenylthio)-4-(pyrrolidin-1-yl)butan-2-ylamino)-3-(trifluoromethylsulfonyl)benzenesulfonamide] | 30
CN(C)CC[C@H](CSc1ccccc1)Nc1ccc(S(=O)(=O)Nc2ncnc3c2CCN(C2CCN(Cc4ccccc4-c4ccc(Cl)cc4)CC2)C3)cc1C#N [Example 54, (R)-N-(7-(1-((4′-chlorobiphenyl-2-yl)methyl)piperidin-4-yl)-5,6,7,8-tetrahydropyrido[3,4-d]pyrimidin-4-yl)-3-cyano-4-(4-(dimethylamino)-1-(phenylthio)butan-2-ylamino)benzenesulfonamide] | 173
CN(C)CC[C@H](CSc1ccccc1)Nc1ccc(S(=O)(=O)Nc2ncnc3c2CCN(C2CCN(Cc4cc(F)ccc4-c4ccc(Cl)cc4)CC2)C3)cc1S(=O)(=O)C(F)(F)F [Example 20] | 22
CN(C)CC[C@H](CSc1ccccc1)Nc1ccc(S(=O)(=O)Nc2ncnc3c2CCN(C2CCN(Cc4c(F)cccc4-c4ccc(Cl)cc4)CC2)C3)cc1S(=O)(=O)C(F)(F)F [Example 21, (R)-N—-(7-(1-((4′-chloro-3-fluorobiphenyl-2-yl)methyl)piperidin-4-yl)-5,6,7,8-tetrahydropyrido[3,4-d]pyrimidin-4-yl)-4-(4-(dimethylamino)-1-(phenylthio)butan-2-ylamino)-3-(trifluoromethylsulfonyl)benzenesulfonamide] | 30
[2H]C1(N2CCc3c(ncnc3NS(=O)(=O)c3ccc(N[C@H](CCN4CCOCC4)CSc4ccccc4)c(S(=O)(=O)C(F)(F)F)c3)C2)CCN([C@H](C)c2ccccc2-c2ccc(Cl)cc2)CC1 [Example 86, N-(7-{1-[(R)-1-(4′-Chloro-biphenyl-2-yl)-ethyl]-4-deuteropiperidin-4-yl}-5,6,7,8-tetrahydro-pyrido[3,4-d]pyrimidin-4-yl)-4-((R)-3-morpholin-4-yl-1-phenylsulfanylmethyl-propylamino)-3-trifluoromethanesulfonyl-benzenesulfonamide] | 46
C[C@H]1CC(N2CCc3c(ncnc3NS(=O)(=O)c3ccc(N[C@H](CCN(C)C)CSc4ccccc4)c(S(=O)(=O)C(F)(F)F)c3)C2)CCN1Cc1ccccc1-c1ccc(Cl)cc1 (mixture of isomers) [Example 4, N-(7-((2S)-1-((4′-chlorobiphenyl-2-yl)methyl)-2-methylpiperidin-4-yl)-5,6,7,8-tetrahydropyrido[3,4-d]pyrimidin-4-yl)-4-((R)-4-(dimethylamino)-1-(phenylthio)butan-2-ylamino)-3-(trifluoromethylsulfonyl)benzenesulfonamide] | 22
O=S(=O)(Nc1ncnc2c1CCN(C1CCN(Cc3ccccc3-c3ccc(Cl)cc3)CC1)C2)c1ccc(N[C@H](CCN2CCOCC2)CSc2ccccc2)c(S(=O)(=O)C(F)(F)F)c1 [Example 9, (R)-N-(7-(1((4′-chlorobiphenyl-2-yl)methyl)piperidin-4-yl)-5,6,7,8-tetrahydropyrido[3,4-d]pyrimidin-4-yl)-4-(4-morpholino-1-(phenylthio)butan-2-ylamino)-3-(trifluoromethylsulfonyl)benzenesulfonamide] | 144

The next lines start with the values.

IC50 [nM] | SMILES
757 | CC(=O)N(CCSc1ccccc1)c1ccc(S(=O)(=O)Nc2ncnc3c2CCN(C2CCN(Cc4cc(F)ccc4-c4ccc(Cl)cc4)CC2)C3)cc1S(=O)(=O)C(F)(F)F [Example 15]
84 | [2H]C1(N2CCc3c(ncnc3NS(=O)(=O)c3ccc(N[C@H](CCN)CSc4ccccc4)c(S(=O)(=O)C(F)(F)F)c3)C2)CCN(Cc2cc(F)ccc2-c2ccc(Cl)cc2)CC1 [Example 79, 4-((R)-3-Amino-1-phenylsulfanylmethyl-propylamino)-N-{7-[4-deutero-1-(4′-chloro-4-fluoro-biphenyl-2-ylmethyl)-piperidin-4-yl]-5,6,7,8-tetrahydro-pyrido[3,4-d]pyrimidin-4-yl}-3-trifluoromethanesulfonyl-benzenesulfonamide]
62 | C[C@H]1CC(N2CCc3c(ncnc3NS(=O)(=O)c3ccc(N[C@H](CCN(C)C)CSc4ccccc4)c([N+](=O)[O-])c3)C2)CCN1Cc1ccccc1-c1ccc(Cl)cc1 (mixture of isomers) [Example 3]
41 | CN(C)CC[C@H](CSc1ccc(Cl)c(Cl)c1)Nc1ccc(S(=O)(=O)Nc2ncnc3c2CCN(C2CCN(Cc4ccccc4-c4ccc(Cl)cc4)CC2)C3)cc1S(=O)(=O)C(F)(F)F [Example 39, N-{7-[1-(4′-Chloro-biphenyl-2-ylmethyl)-piperidin-4-yl]-5,6,7,8-tetrahydro-pyrido[3,4-d]pyrimidin-4-yl}-4-[(R)-1-(3,4-dichloro-phenylsulfanylmethyl)-3-dimethylamino-propylamino]-3-trifluoromethanesulfonyl-benzenesulfonamide]
73 | CC(c1ccccc1-c1ccc(Cl)cc1)N1CCC(N2CCc3c(ncnc3NS(=O)(=O)c3ccc(N[C@H](CCN(C)C)CSc4ccccc4Cl)c(S(=O)(=O)C(F)(F)F)c3)C2)CC1 (stereo partly drawn) [Example 29, N-(7-(1-(1-(4′-chlorobiphenyl-2-yl)ethyl)piperidin-4-yl)-5,6,7,8-tetrahydropyrido[3,4-d]pyrimidin-4-yl)-4-((R)-1-(2-chlorophenylthio)-4-(dimethylamino)butan-2-ylamino)-3-(trifluoromethylsulfonyl)benzenesulfonamide]
41 | [2H]C1(N2CCc3c(ncnc3NS(=O)(=O)c3ccc(N[C@H](CCN(C)C(C)C)CSc4ccccc4)c(S(=O)(=O)C(F)(F)F)c3)C2)CCN(CC2=C(c3ccc(Cl)cc3)CC(C)(C)CC2)CC1 [Example 78, N-(7-(1-[2-(4-Chloro-phenyl)-4,4-dimethyl-cyclohex-1-enylmethyl]-4-deutero-piperidin-4-yl)-5,6,7,8-tetrahydro-pyrido[3,4-d]pyrimidin-4-yl)-4-[(R)-3-(isopropyl-methyl-amino)-1-phenylsulfanylmethyl-propylamino]-3-trifluoromethanesulfonyl-benzenesulfonamide]
174 | CN(C)CC[C@H](CSc1ccccc1)Nc1ccc(S(=O)(=O)Nc2ncnc3c2CCN(C2CCC(=Cc4ccccc4-c4ccc(Cl)cc4)CC2)C3)cc1S(=O)(=O)C(F)(F)F (stereo partly drawn) [Example 62, N-(7-(4-((4′-chlorobiphenyl-2-yl)methylene)cyclohexyl)-5,6,7,8-tetrahydropyrido[3,4-d]pyrimidin-4-yl)-4-((R)-4-(dimethylamino)-1-(phenylthio)butan-2-ylamino)-3-(trifluoromethylsulfonyl)benzenesulfonamide]
66 | O=[N+]([O-])c1cc(S(=O)(=O)Nc2ncnc3c2CCN(C2CCN(Cc4ccccc4-c4ccc(Cl)cc4)CC2)C3)ccc1N[C@H](CCN1CCOCC1)CSc1ccccc1 [Example 58]
128 | O=S(=O)(Nc1ncnc2c1CCN(C1CCN(Cc3ccccc3-c3ccc(Cl)cc3)CC1)C2)c1ccc(N[C@H](CCN2CCCCC2)CSc2ccccc2)c(S(=O)(=O)C(F)(F)F)c1 [Example 30, (R)-N-(7(1-((4′-chlorobiphenyl-2-yl)methyl)piperidin-4-yl)-5,6,7,8-tetrahydropyrido[3,4-d]pyrimidin-4-yl)-4-(l-(phenylthio)-4-(piperidin-1-yl)butan-2-ylamino)-3-(trifluoromethylsulfonyl)benzenesulfonamide]
3060 | CN(C)CC[C@H](CSc1ccccc1)Nc1c(F)cc(S(=O)(=O)Nc2ncnc3c2CCN(C2CCN(Cc4ccccc4-c4ccc(Cl)cc4)CC2)C3)cc1F [Example 12, (R)-N-(7-(1-((4′-chlorobiphenyl-2-yl)methyl)piperidin-4-yl)-5,6,7,8-tetrahydropyrido[3,4-d]pyrimidin-4-yl)-4-(4-(dimethylamino)-1-(phenylthio)butan-2-ylamino)-3,5-difluorobenzenesulfonamide]
73 | [2H]C1(N2CCc3c(ncnc3NS(=O)(=O)c3ccc(N[C@H](CCN(C)C(C)C)CSc4ccccc4)c(S(=O)(=O)C(F)(F)F)c3)C2)CCN(Cc2cc(F)ccc2-c2ccc(Cl)cc2)CC1 [Example 84]
